Earlier results in paper PMC4303307 (Biochemistry, 2014).
Where no end group is shown, it is not given here.

System: γ-crystallin
Conditions: cited from earlier work

MAC peptide with an acetylated Lys 70: the MAC peptide with an acetylated Lys 70 used by Nahomi et al. (K(Ac)FVIFLDVKHFSPEDLTVK; UniProt P02489 70-88, looked up, fragment)
chaperone activity of acetylated Lys vs Asp at the N-terminal end: enhanced chaperone activity
increase of chaperone activity over nonacetylated peptide (in vitro, γ-crystallin substrate): ~15%
